melting point: 83 to 85 °C
SMILES: CC(C)C[C@H](NC(=O)N1CCOCC1)C(=O)N[C@@H](CCc1ccccc1)C(=O)c1oc(-c2ccccc2)nc1-c1ccccc1 [Example 5, Morpholine-4-carboxylic acid {1-(S)-[1-(S)-(2,4-diphenyloxazole-5-carbonyl)-3-phenylpropylcarbamoyl]-3-methylbutyl} amide]

Source: patent US6608057B2, “Compounds useful as reversible inhibitors of cathepsin S” (Boehringer Ingelheim Pharmaceuticals, Inc., priority 1999, dated 2003)
